Reference: patent publication US20110230472A1, “RING-FUSED AZOLE DERIVATIVE HAVING PI3K-INHIBITING ACTIVITY” (Shionogi & Co., Ltd., priority 2008, published 2011)

Key:
PI-3 kinase γ = PI-3 kinase γ (Homo sapiens, UniProt P48736); experiment: PI3Kγ inhibitory activity, PI3-kinase HTRF assay (inhibition ratio); type: biochemical; details: 0.5 h; for inhibition at 50 µM: compound at 50 μM
Procedure, shortened: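 PI3Kγ preincubated 10 min with compound and PIP2 substrate (MgCl2, DTT), then ATP added for 30 min at room temperature. PIP3 detected by HTRF (665/620 nm ratio) after 18 h. Inhibition ratio at 50 or 10 μmol/L, normalised to no-compound and no-enzyme controls.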

[1] = tested on: AKT phosphorylation in human monocyte-like cell line THP-1; experiment: AKT phosphorylation inhibitory activity in MCP-1-stimulated THP-1 cells (ELISA); type: cell-based; details: 1 μmol/L solution of each compound, MCP-1 stimulation, read-out: AKT phosphorylation inhibition ratio
Procedure: (1) The AKT phosphorylation inhibitory activity of a compound was evaluated according to the following procedure. (2) Human monocyte-like cell line THP-1 was washed with RPMI-1640 media, incubated in the presence of 5% CO2 at 37° C. for 3 hours, washed with Hank's balanced salt solution (HBSS), adjusted to a cell concentration of 6.6×10^6/mL, and then used in an experiment. (3) 30 μL of the cell suspension and 60 μL of each compound solution containing 0.2% DMSO/HBSS were mixed and then preincubated at 37° C. for 5 minutes. 30 μL of HBSS containing 4 μg/mL of MCP-1 was added thereto and then incubated for 30 seconds at 37° C. (4) 30 μl of a cell lysate (20 mmol/L Tris-HCl (pH 7.5), 150 mmol/L NaCl, 1 mmol/L Na2EDTA, 1 mmol/L EGTA, 1% Triton, 2.5 mmol/L sodium pyrophosphate, 1 mmol/L β-glycerophosphate, 1 mmol/L Na3VO4, 1 μg/ml leupeptin, 50 nmol/L APMSF) was added thereto to lyse cells. (5) The amount of AKT phosphorylation in the cell lysate was measured by ELISA method. (6) Anti-phospho-Akt (Ser473) antibodies (clone 193H12, derived from a rabbit) were immobilized onto the solid phase of a micro well plate. 100 μL of the prepared cell lysate was added to the micro well plate, incubated for 2 hours at 37° C., and then washed four times with Phosphate Buffered Saline containing 0.05% Tween-20. (7) An anti-AKT1 antibody (clone 2H10, derived from a mouse) was added thereto, incubated for 1 hour at 37° C., washed similarly, and then reacted with an HRP-labeled anti-mouse IgG antibody. (8) After incubating at 37° C. for 30 minutes and then washing similarly, 100 μL of TMB (3,3′,5,5″-tetramethylbenzidine) was added thereto, followed by reacting at room temperature for 30 minutes. (9) 100 μL of 1 mol/L sulfuric acid was added to quench the color reaction and then the absorbance at 450 nm was measured. (10) A series of diluted cell lysates of a positive control (a sample in the absence of a compound) were used to prepare a calibration curve, the amount of AKT phosphorylation in a sample in the absence of MCP-1 was defined as 0% activity to calculate an inhibition ratio. The measurement was performed for a 1 μmol/L solution of each compound.

Solubility test = type: physicochemical; details: kinetic from dmso stock; artificial intestinal juice pH 6.8, 1% DMSO, 25° C. for 16 hours
Procedure: The solubility of a compound was determined under a condition in which 1% DMSO was added. 10 mmol/L compound solution was prepared using DMSO, and then 6 μL of the compound solution was added to 594 μL of artificial intestinal juice in pH 6.8 (to 250 mL of 0.2 mol/L potassium dihydrogen phosphate reagent solution was added 118 mL of 0.2 mol/L NaOH reagent solution and water to provide a final volume of 1000 mL). After standing at 25° C. for 16 hours, the mixed solution was filtered with suction. The filtrate was diluted twice with methanol/water (1/1), and then a concentration in the filtration was measured with HPLC or LC/MS/MS by the absolute calibration method.

Metabolic stability test = type: in vitro ADME; details: human liver microsome 0.5 mg protein/mL, 1 mmol/L NADPH, 37° C.
Procedure: After a subject compound was reacted for a certain time using a pooled human liver microsome commercially available, a reacted sample and an unreacted sample are compared to calculate a survival ratio, and then the degree of metabolism in the liver was evaluated.
0.2 mL of a buffer solution (50 mmol/L of Tris-HCl in pH 7.4, 150 mmol/L of potassium chloride, and 10 mmol/L of magnesium chloride) containing a human liver microsome of 0.5 mg protein/mL was reacted in the presence of 1 mmol/L NADPH at 37° C. for 0 or 30 minutes (oxidative reaction). After reacting, 50 μL of the reaction solution was added to 100 μL of a solution of methanol/acetonitrile (1/1 (v/v)), mixed, and then centrifuged at 3000 rpm for 15 minutes. The test compound in the supernatant was quantitated with LC/MS/MS. The amount of the compound at a reaction time of 0 minute was defined as 100% and, based on that, the percentage of the test compound remained after reacting for 30 minutes was calculated.

CYP1A2 = target: T1, CYP1A2 (Homo sapiens, UniProt P05177); experiment: CYP inhibition test, pooled human liver microsome, CYP1A2; type: in vitro ADME; details: O-de-ethylation of 7-ethoxyresorufin
T1 construct: enzyme: pooled human liver microsome 0.2 mg protein/mL; from tissue; host or cells: pooled human liver microsome
T1 sequence (P05177 1-516): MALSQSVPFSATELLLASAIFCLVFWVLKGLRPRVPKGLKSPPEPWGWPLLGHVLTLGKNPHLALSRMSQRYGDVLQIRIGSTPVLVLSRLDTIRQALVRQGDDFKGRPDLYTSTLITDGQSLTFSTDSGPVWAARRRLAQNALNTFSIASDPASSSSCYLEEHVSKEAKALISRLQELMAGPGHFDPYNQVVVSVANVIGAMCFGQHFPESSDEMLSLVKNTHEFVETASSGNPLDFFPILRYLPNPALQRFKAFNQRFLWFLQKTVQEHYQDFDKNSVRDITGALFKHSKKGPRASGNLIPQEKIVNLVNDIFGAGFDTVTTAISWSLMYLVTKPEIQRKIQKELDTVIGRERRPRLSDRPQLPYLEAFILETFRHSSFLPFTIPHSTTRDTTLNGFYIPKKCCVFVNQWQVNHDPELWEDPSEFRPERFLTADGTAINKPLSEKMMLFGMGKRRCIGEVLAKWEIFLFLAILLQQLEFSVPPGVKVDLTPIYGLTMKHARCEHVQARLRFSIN
Source text: (§1) O-de-ethylation of 7-ethoxyresorufin (CYP1A2), methyl-hydroxylation of tolbutamide (CYP2C9), 4′-hydroxylation of mephenyloin (CYP2C19), O-demethylation of dextromethorphan (CYP2D6), and hydroxylation of terfenadine (CYP3A4), which are typical substrate for metabolic reactions of human main CYP5 molecular species (CYP1A2, 2C9, 2C19, 2D6, and 3A4), were adopted as indexes.
(§2) The reaction conditions are as follows: substrate: 0.5 μmol/L of ethoxyresorufin (CYP1A2), 100 μmol/L of tolbutamide (CYP2C9), […] of S-mephenyloin (CYP2C19), 5 μmol/L of dextromethorphan (CYP2D6), and 1 μmol/L of terfenadine (CYP3A4); reaction time; 15 minutes; reaction temperature: 37° C.; enzyme: pooled human liver microsome 0.2 mg protein/mL; test drug concentration: 1, 5, 10, and 20 μmol/L (4 points).
(§3) In a 96-well plate, as a reaction solution, five kinds of substrates, a human liver microsome, and a test drug were added to 50 mmol/L Hepes buffer solution in the aforementioned ratio. A coenzyme NADPH was added to start a metabolic reaction, which is an index. After reacting at 37° C. for 15 minutes, a solution of methanol/acetonitrile (1/1 (v/v)) was added to quench the reaction. After centrifugation at 3000 rpm for 15 minutes, resorufin (CYP1A2 metabolite) in the supernatant was quantitated with a fluorescence multilabel counter, and hydroxylated tolbutamide (CYP2C9 metabolite), 4′-hydroxylated mephenyloin (CYP2C19 metabolite), […], terfenadine in alcohol form (CYP3A4 metabolite) were quantitated with LC/MS/MS.
(§4) The case wherein only DMSO (a solvent which dissolved a drug) was added to a reaction system was defined as a control (100%). When a test drug solution was added, the remaining activity (%) at each concentration was calculated, and then IC50 was calculated with a concentration and an inhibition ratio by an inverse estimation using a logistic model.

CYP2C9 = target: T2, CYP2C9 (Homo sapiens, UniProt P11712); experiment: CYP inhibition test, pooled human liver microsome, CYP2C9; type: in vitro ADME; details: methyl-hydroxylation of tolbutamide
T2 construct: enzyme: pooled human liver microsome 0.2 mg protein/mL; from tissue; host or cells: pooled human liver microsome
T2 sequence (P11712 whole entry): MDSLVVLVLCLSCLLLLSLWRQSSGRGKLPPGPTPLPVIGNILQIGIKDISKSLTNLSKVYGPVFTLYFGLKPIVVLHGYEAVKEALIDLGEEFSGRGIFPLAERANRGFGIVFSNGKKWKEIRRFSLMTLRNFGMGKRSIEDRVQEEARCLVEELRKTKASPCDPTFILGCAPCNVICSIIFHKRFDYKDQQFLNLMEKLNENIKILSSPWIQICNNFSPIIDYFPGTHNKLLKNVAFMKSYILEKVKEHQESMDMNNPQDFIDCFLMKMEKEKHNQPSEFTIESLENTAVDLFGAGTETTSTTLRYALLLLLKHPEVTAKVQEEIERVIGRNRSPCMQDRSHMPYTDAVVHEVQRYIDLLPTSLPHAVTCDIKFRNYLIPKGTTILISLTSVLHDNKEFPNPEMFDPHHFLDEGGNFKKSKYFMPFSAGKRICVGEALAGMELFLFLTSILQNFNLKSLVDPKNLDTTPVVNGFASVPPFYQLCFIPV
Source text: as §1, §2, §3, §4

CYP2C19 = target: T3, CYP2C19 (Homo sapiens, UniProt P33261); experiment: CYP inhibition test, pooled human liver microsome, CYP2C19; type: in vitro ADME; details: 4′-hydroxylation of mephenyloin
T3 construct: enzyme: pooled human liver microsome 0.2 mg protein/mL; from tissue; host or cells: pooled human liver microsome
T3 sequence (P33261 whole entry): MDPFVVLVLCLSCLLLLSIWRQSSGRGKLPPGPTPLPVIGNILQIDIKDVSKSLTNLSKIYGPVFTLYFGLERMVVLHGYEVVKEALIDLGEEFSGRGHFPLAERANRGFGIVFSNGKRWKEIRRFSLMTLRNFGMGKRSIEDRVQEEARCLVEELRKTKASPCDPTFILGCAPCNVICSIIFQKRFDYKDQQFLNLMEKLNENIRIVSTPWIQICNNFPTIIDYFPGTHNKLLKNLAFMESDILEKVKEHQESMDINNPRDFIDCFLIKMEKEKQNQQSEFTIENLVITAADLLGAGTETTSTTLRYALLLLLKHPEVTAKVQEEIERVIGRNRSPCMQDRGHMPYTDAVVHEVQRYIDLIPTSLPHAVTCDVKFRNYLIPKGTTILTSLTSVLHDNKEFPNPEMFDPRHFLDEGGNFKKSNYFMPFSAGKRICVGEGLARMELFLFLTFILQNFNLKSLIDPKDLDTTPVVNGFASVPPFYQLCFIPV
Source text: as §1, §2, §3, §4

CYP2D6 = target: T4, CYP2D6 (Homo sapiens, UniProt P10635); experiment: CYP inhibition test, pooled human liver microsome, CYP2D6; type: in vitro ADME; details: O-demethylation of dextromethorphan
T4 construct: enzyme: pooled human liver microsome 0.2 mg protein/mL; from tissue; host or cells: pooled human liver microsome
T4 sequence (P10635 whole entry): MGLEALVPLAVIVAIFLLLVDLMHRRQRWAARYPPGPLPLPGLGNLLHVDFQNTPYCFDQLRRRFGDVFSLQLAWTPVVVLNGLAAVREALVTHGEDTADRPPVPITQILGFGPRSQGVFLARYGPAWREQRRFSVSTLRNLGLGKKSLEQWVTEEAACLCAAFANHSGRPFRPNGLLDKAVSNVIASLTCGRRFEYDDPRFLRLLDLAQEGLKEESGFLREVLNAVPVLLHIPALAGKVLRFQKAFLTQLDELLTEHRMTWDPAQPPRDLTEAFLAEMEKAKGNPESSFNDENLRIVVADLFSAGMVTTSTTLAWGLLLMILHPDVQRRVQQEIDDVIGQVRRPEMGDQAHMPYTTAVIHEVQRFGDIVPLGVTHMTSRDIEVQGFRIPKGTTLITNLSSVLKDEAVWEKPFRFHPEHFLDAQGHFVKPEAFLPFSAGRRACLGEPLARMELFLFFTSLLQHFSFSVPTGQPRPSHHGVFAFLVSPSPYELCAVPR
Source text: as §1, §2, §3, §4

CYP3A4 = target: T5, CYP3A4 (Homo sapiens, UniProt P08684); experiment: CYP inhibition test, pooled human liver microsome, CYP3A4; type: in vitro ADME; details: hydroxylation of terfenadine
T5 construct: enzyme: pooled human liver microsome 0.2 mg protein/mL; from tissue; host or cells: pooled human liver microsome
T5 sequence (P08684 whole entry): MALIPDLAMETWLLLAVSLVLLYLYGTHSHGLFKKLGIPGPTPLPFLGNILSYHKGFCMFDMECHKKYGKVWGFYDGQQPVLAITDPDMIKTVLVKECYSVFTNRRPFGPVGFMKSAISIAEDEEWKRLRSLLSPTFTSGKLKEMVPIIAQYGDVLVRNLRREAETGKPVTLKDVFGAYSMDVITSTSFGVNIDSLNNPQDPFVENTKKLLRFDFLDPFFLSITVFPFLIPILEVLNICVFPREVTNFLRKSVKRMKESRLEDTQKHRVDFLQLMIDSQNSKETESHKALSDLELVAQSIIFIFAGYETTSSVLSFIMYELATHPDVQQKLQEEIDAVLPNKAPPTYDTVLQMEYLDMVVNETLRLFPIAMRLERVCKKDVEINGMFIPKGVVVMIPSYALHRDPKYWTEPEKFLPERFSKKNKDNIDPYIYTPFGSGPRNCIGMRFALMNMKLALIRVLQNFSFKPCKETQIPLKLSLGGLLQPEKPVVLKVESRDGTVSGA
Source text: as §1, §2, §3, §4
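For percentage of the test compound remained after reacting for 30 minutes in this document: 100% equals the compound amount at 0 min reaction.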

Chain of PI-3 kinase γ (P48736 whole entry): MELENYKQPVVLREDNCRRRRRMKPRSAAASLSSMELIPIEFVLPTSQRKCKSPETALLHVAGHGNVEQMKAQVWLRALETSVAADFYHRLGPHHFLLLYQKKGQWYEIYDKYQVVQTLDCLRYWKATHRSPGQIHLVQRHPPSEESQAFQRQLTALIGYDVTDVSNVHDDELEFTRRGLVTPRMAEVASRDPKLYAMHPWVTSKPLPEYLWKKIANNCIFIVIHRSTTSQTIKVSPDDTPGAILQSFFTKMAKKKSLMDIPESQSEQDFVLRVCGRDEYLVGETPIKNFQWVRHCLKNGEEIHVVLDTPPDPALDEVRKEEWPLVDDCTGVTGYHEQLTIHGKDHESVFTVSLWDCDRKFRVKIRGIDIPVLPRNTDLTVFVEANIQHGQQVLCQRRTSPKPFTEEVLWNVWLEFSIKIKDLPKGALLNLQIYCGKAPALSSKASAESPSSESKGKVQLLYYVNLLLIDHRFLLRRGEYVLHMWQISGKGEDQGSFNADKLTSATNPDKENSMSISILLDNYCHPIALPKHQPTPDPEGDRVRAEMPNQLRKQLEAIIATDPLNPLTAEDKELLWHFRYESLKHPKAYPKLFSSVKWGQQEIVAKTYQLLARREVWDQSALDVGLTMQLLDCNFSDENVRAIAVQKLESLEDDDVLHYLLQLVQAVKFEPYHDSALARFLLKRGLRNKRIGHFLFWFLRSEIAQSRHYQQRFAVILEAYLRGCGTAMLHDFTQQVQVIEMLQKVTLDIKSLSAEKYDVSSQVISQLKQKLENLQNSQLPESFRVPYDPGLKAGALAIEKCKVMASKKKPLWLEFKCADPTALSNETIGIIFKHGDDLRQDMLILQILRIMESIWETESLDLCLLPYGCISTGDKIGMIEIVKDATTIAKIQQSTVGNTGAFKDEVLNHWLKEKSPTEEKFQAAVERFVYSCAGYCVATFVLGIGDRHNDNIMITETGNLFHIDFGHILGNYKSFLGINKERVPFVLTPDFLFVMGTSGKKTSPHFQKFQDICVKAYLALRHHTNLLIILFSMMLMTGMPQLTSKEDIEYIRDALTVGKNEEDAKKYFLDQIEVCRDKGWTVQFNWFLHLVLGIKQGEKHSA

Row | SMILES | inhibition at 50 µM (PI-3 kinase γ; PI3Kγ) [%] | solubility at 16 h (Solubility test) [µM] | percentage of the test compound remained after reacting for 30 minutes (Metabolic stability test) [%] | inhibition at 10 µM (PI-3 kinase γ; PI3Kγ, compound at 10 μM) [%] | inhibition at 10 µM (PI-3 kinase γ; compound at 10 μmol/L) [%] | IC50 (CYP1A2) [µM] | IC50 (CYP2C9) [µM] | IC50 (CYP2C19) [µM] | IC50 (CYP2D6) [µM] | IC50 (CYP3A4) [µM] | inhibition [1] [%]
1 | CNC(=O)Nc1cc2n(n1)CCN2c1ccc2ncccc2c1 [Compound I-177] | ≥ 95 | > 50 |  |  |  |  |  |  |  |  | > 99.5
2 | CNC(=O)Nc1cc2n(n1)CCN2c1ccc2cnccc2c1 [Compound I-190] | ≥ 95 |  | 90.5 |  |  |  |  |  |  |  | > 99.5
3 | CC(=O)Nc1cc2n(n1)CCN2c1cccc(Cl)c1 [Compound I-198] | 94 | > 50 |  |  |  |  |  |  |  |  | 97.3
4 | COc1cc(N2CCc3nc(NC(C)=O)sc3C2)nc(OC)n1 [Compound I-214] | ≥ 95 |  | 98.9 |  |  |  |  |  |  |  | > 99.5
5 | COc1cc(N2CCc3nc(NC(=O)NCCC(=O)N4CCCC4)sc3C2)nc(OC)n1 [Compound I-308] |  |  | 92.2 |  | ≥ 95 |  |  |  |  |  | 98.4
6 | COc1cc(N2CCc3nc(NC(=O)NCCC(=O)NC(C)C)sc3C2)nc(OC)n1 [Compound I-309] |  | > 50 | 93.1 |  | ≥ 95 |  |  |  |  |  | 92
7 | COc1nc(OC)nc(N2CCc3nc(NC(C)=O)sc3C2)n1 [Compound I-330] |  | > 50 | 99 |  | 83 | > 20 | > 20 | > 20 | > 20 | > 20 | 
8 | CC(=O)Nc1cc2n(n1)CCN2c1ccc2c(c1)CCC(=O)N2C [Compound I-340] |  | > 50 | 98.3 |  | ≥ 95 | > 20 | > 20 | > 20 | > 20 | > 20 | 
9 | CNC(=O)Nc1nc2c(s1)CN(c1cncc(OC)n1)CC2 [Compound I-378] |  | > 50 |  |  | ≥ 95 |  |  |  |  |  | > 99.5
10 | CN1CCc2cc(N3CCn4nc(NC(=O)c5cc(O)no5)cc43)ccc2C1=O [Compound I-397] |  | > 50 | 96.7 |  | ≥ 95 | > 20 | > 20 | > 20 | > 20 | > 20 | 

Continued, in another order:

Row | inhibition at 50 µM (PI-3 kinase γ; PI3Kγ) [%] | solubility at 16 h (Solubility test) [µM] | percentage of the test compound remained after reacting for 30 minutes (Metabolic stability test) [%] | inhibition at 10 µM (PI-3 kinase γ; PI3Kγ, compound at 10 μM) [%] | inhibition at 10 µM (PI-3 kinase γ; compound at 10 μmol/L) [%] | IC50 (CYP1A2) [µM] | IC50 (CYP2C9) [µM] | IC50 (CYP2C19) [µM] | IC50 (CYP2D6) [µM] | IC50 (CYP3A4) [µM] | SMILES | inhibition [1] [%]
11 |  | > 50 | 94.9 | ≥ 95 |  |  |  |  |  |  | CC(=O)Nc1cc2n(n1)CCN2c1ccc2c(c1)CCN(C)C2=O [Compound I-287] | > 99.5
12 |  |  |  |  | 84 |  |  |  |  |  | CN1CCc2cc(N3CCn4nc(NC(=O)c5cccs5)cc43)ccc2C1=O [Compound I-331] | 93
13 |  |  | 87.2 |  | ≥ 95 |  |  |  |  |  | CN1CCc2cc(N3CCn4nc(NC(=O)c5ccsc5)cc43)ccc2C1=O [Compound I-332] | 96
14 |  | > 50 |  |  | ≥ 95 |  |  |  |  |  | CN1CCc2cc(N3CCn4nc(NC(=O)c5cncs5)cc43)ccc2C1=O [Compound I-341] | 97.8
15 |  | > 50 | 94.5 |  | ≥ 95 |  |  |  |  |  | CN1CCc2cc(N3CCn4nc(NC(=O)c5cnco5)cc43)ccc2C1=O [Compound I-348] | > 99.5
